Results reported in ChEMBL document CHEMBL1681717, “Design and synthesis of a novel, orally active, brain penetrant, tri-substituted thiophene based JNK inhibitor” (Bioorg Med Chem Lett, 2011).

Legend:
[1] = target: T1, Mitogen-activated protein kinase 10 (Homo sapiens, UniProt P53779); experiment: Inhibition of recombinant JNK3 after 60 mins by TR-FRET assay
[2] = target: Proto-oncogene tyrosine-protein kinase receptor Ret (Homo sapiens) (UniProt P07949); experiment: Inhibition of RET at 10 uM
Mus musculus = experiment: Inhibition of kainic acid-induced JNK activation in FVB mouse hippocampus assessed as reduction of phosphorylated c-jun level at 300 mg/kg, po administered 1 hr before kainic acid challenge measured after 4 hrs; type: functional
[3] = target: Serine/threonine-protein kinase Chk1 (Homo sapiens) (UniProt O14757); experiment: Inhibition of CHEK1 at 10 uM
[4] = target: T1, Mitogen-activated protein kinase 10; conditions: 10 uM
Description: Inhibition of MAPK10 at 10 uM

[5] = target: Receptor-interacting serine/threonine-protein kinase 2 (Homo sapiens) (UniProt O43353); experiment: Inhibition of RIPK2 at 10 uM
[6] = target: Serine/threonine-protein kinase 3 (Homo sapiens) (UniProt Q13188); experiment: Inhibition of STK3 at 10 uM
[7] = target: Serine/threonine-protein kinase PLK3 (Homo sapiens) (UniProt Q9H4B4); experiment: Inhibition of PLK3 at 10 uM
[8] = target: Mitogen-activated protein kinase 14 (Homo sapiens, UniProt Q16539); experiment: Inhibition of recombinant p38alpha after 60 mins by TR-FRET assay
[9] = target: Cyclin-dependent kinase 1/cyclin B (Homo sapiens) (UniProt P06493+P14635+Q8WWL7+O95067); experiment: Inhibition of CDK1/cyclin B at 10 uM; type: protein-complex assay
[10] = target: RAC-alpha serine/threonine-protein kinase (Homo sapiens) (UniProt P31749); experiment: Inhibition of AKT1 at 10 uM
[11] = target: cAMP-dependent protein kinase catalytic subunit alpha (Homo sapiens) (UniProt P17612); experiment: Inhibition of PRKACA at 10 uM
MDR1 [12] = experiment: Apparent permeability of the compound from apical to basolateral direction in MDCK2 cells expressing MDR1; type: ADME, cell-based, Canis lupus familiaris, MDCK-II; conditions: dog, MDCK-MDR1
[13] = Oxidative metabolic stability in human liver microsomes assessed as compound remaining at 5 uM after 120 mins; type: ADME, Microsome; conditions: read-out: Stability
[14] = target: Tyrosine-protein kinase JAK1 (Homo sapiens) (UniProt P23458); experiment: Inhibition of JAK1 at 10 uM
[15] = target: T2, Mitogen-activated protein kinase 1 (Homo sapiens, UniProt P28482); experiment: Inhibition of MAPK1 at 10 uM
[16] = target: Tyrosine-protein kinase Lck (Homo sapiens) (UniProt P06239); experiment: Inhibition of LCK at 10 uM
[17] = target: Serine/threonine-protein kinase PAK 4 (Homo sapiens) (UniProt O96013); experiment: Inhibition of PAK4 at 10 uM
[18] = target: Glycogen synthase kinase-3 beta (Homo sapiens) (UniProt P49841); experiment: Inhibition of GSK3B at 10 uM
[19] = target: Insulin receptor (Homo sapiens) (UniProt P06213); experiment: Inhibition of INSR at 10 uM
[20] = Oxidative metabolic stability in mouse liver microsomes assessed as compound remaining at 5 uM after 120 mins; type: ADME, Microsome; conditions: read-out: Stability
[21] = target: Dual specificity protein kinase CLK1 (Homo sapiens) (UniProt P49759); experiment: Inhibition of CLK1 at 10 uM
[22] = target: T2, Mitogen-activated protein kinase 1; experiment: Inhibition of recombinant ERK2 after 60 mins by TR-FRET assay
MDR1 [23] = experiment: Efflux ratio of permeability from basolateral to apical side over apical to basolateral side in MDCK2 cells expressing MDR1; type: ADME, cell-based, Canis lupus familiaris, MDCK-II; conditions: dog, MDCK-MDR1
[24] = target: Mitogen-activated protein kinase 8 (Homo sapiens, UniProt P45983); experiment: Inhibition of recombinant JNK1 after 60 mins by TR-FRET assay
[25] = target: Receptor tyrosine-protein kinase erbB-4 (Homo sapiens) (UniProt Q15303); experiment: Inhibition of ERBB4 at 10 uM
[26] = target: Cyclin-dependent kinase 5/CDK5 activator 1 (Homo sapiens) (UniProt Q00535+Q15078); experiment: Inhibition of CDK5/p25 at 10 uM; type: protein-complex assay
[27] = target: Tyrosine-protein kinase ABL1 (Homo sapiens) (UniProt P00519); experiment: Inhibition of ABL1 at 10 uM
[28] = target: Platelet-derived growth factor receptor alpha (Homo sapiens) (UniProt P16234); experiment: Inhibition of PDGFRA at 10 uM
[29] = target: Dual specificity tyrosine-phosphorylation-regulated kinase 1B (Homo sapiens) (UniProt Q9Y463); experiment: Inhibition of DYRK1B at 10 uM
[30] = target: Dual specificity protein kinase TTK (Homo sapiens) (UniProt P33981); experiment: Inhibition of TTK at 10 uM
[31] = target: Protein kinase C beta type (Homo sapiens) (UniProt P05771); experiment: Inhibition of PRKCB1 at 10 uM
[32] = target: Receptor-type tyrosine-protein kinase FLT3 (Homo sapiens) (UniProt P36888); experiment: Inhibition of FLT3 at 10 uM
[33] = target: PI3-kinase p110-alpha/p85-alpha (Homo sapiens) (UniProt P27986+P42336); experiment: Inhibition of PIK3CA/PIK3R1 at 10 uM; type: protein-complex assay
[34] = target: Cyclin-dependent kinase 2/cyclin A (Homo sapiens) (UniProt P24941+P20248+P78396); experiment: Inhibition of CDK2/cyclin A at 10 uM; type: protein-complex assay
[35] = target: Calcium/calmodulin-dependent protein kinase type II subunit alpha (Homo sapiens) (UniProt Q9UQM7); experiment: Inhibition of CAMK2A at 10 uM
[36] = target: Serine/threonine-protein kinase MARK2 (Homo sapiens) (UniProt Q7KZI7); experiment: Inhibition of MARK2 at 10 uM
[37] = target: Aurora kinase A (Homo sapiens) (UniProt O14965); experiment: Inhibition of Aurora A at 10 uM
[38] = target: Mitogen-activated protein kinase 9 (Homo sapiens, UniProt P45984); experiment: Inhibition of recombinant JNK2 after 60 mins by TR-FRET assay
[39] = target: Tyrosine-protein kinase SYK (Homo sapiens) (UniProt P43405); experiment: Inhibition of SYK at 10 uM
[40] = target: Protein-tyrosine kinase 2-beta (Homo sapiens) (UniProt Q14289); experiment: Inhibition of PTK2B at 10 uM
[41] = target: Macrophage colony-stimulating factor 1 receptor (Homo sapiens) (UniProt P07333); experiment: Inhibition of CSF1R at 10 uM
[42] = tested on: RAF proto-oncogene serine/threonine-protein kinase (Homo sapiens), P04049 [Y340D,Y341D]; experiment: Inhibition of RAF1 Y340D, Y341D mutant at 10 uM
[43] = target: Rho-associated protein kinase 2 (Homo sapiens) (UniProt O75116); experiment: Inhibition of ROCK2 at 10 uM
[44] = target: Leucine-rich repeat serine/threonine-protein kinase 2 (Homo sapiens) (UniProt Q5S007); experiment: Inhibition of LRRK2 at 10 uM
[45] = target: Serine/threonine-protein kinase PLK2 (Homo sapiens) (UniProt Q9NYY3); experiment: Inhibition of PLK2 at 10 uM
[46] = target: Serine/threonine-protein kinase PLK1 (Homo sapiens) (UniProt P53350); experiment: Inhibition of PLK1 at 10 uM
[47] = target: Serine/threonine-protein kinase 16 (Homo sapiens) (UniProt O75716); experiment: Inhibition of STK16 at 10 uM

T2 sequence (P28482 whole entry): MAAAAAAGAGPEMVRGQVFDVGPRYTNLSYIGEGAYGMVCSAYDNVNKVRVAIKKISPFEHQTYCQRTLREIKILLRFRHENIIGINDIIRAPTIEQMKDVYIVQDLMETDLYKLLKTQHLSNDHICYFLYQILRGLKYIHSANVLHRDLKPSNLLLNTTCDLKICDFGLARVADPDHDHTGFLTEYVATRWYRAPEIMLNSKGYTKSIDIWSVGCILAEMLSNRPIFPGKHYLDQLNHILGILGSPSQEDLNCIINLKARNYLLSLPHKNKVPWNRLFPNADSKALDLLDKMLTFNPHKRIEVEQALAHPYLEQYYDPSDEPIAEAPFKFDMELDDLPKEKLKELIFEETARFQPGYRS
T1 sequence (P53779 whole entry): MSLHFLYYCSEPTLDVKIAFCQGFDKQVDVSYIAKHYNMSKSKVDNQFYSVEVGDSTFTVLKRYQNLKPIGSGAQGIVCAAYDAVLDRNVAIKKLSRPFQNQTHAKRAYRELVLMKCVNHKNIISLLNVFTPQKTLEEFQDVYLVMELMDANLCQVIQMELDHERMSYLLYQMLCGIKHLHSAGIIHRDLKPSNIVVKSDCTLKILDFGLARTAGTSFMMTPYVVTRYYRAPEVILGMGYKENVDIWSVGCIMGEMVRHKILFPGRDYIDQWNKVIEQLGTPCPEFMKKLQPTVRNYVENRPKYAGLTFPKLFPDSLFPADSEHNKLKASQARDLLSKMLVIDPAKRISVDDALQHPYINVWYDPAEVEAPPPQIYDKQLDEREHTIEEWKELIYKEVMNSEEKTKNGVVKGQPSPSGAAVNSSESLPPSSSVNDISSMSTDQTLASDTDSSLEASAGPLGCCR
Sequence of Rho-associated protein kinase 2 (Homo sapiens) (O75116 whole entry, looked up): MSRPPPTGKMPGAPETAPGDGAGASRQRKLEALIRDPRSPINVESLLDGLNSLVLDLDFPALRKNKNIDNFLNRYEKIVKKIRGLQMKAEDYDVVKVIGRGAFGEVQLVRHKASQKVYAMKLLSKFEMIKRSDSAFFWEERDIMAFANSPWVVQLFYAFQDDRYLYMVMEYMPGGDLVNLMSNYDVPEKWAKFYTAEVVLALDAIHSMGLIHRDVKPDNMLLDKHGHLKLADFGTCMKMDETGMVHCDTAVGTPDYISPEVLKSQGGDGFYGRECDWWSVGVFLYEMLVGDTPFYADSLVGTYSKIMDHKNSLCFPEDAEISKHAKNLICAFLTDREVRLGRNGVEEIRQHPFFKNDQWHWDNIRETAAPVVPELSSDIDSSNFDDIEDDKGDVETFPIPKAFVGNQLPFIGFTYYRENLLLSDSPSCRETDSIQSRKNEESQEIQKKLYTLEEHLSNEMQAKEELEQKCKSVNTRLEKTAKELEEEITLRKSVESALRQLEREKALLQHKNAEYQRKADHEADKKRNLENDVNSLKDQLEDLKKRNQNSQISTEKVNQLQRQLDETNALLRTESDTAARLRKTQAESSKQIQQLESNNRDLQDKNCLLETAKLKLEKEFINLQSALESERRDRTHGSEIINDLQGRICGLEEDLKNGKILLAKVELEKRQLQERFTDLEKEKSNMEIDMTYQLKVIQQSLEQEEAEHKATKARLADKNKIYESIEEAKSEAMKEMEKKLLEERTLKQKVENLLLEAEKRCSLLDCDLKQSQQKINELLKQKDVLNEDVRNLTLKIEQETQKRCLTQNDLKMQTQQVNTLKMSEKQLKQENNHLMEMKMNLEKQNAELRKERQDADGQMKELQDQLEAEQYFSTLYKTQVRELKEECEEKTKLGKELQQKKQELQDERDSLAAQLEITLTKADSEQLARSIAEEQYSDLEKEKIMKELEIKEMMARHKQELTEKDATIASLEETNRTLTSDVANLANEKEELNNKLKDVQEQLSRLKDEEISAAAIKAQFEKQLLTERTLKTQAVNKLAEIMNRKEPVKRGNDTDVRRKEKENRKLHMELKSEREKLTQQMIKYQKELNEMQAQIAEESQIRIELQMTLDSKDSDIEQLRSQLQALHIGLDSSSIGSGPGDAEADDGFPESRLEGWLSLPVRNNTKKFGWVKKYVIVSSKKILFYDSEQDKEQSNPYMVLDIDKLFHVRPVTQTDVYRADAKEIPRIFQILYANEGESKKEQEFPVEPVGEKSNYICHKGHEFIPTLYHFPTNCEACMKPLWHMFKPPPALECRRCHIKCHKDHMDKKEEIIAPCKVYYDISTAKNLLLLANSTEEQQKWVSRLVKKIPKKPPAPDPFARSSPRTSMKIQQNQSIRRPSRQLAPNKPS
Sequence of Macrophage colony-stimulating factor 1 receptor (Homo sapiens) (P07333 whole entry): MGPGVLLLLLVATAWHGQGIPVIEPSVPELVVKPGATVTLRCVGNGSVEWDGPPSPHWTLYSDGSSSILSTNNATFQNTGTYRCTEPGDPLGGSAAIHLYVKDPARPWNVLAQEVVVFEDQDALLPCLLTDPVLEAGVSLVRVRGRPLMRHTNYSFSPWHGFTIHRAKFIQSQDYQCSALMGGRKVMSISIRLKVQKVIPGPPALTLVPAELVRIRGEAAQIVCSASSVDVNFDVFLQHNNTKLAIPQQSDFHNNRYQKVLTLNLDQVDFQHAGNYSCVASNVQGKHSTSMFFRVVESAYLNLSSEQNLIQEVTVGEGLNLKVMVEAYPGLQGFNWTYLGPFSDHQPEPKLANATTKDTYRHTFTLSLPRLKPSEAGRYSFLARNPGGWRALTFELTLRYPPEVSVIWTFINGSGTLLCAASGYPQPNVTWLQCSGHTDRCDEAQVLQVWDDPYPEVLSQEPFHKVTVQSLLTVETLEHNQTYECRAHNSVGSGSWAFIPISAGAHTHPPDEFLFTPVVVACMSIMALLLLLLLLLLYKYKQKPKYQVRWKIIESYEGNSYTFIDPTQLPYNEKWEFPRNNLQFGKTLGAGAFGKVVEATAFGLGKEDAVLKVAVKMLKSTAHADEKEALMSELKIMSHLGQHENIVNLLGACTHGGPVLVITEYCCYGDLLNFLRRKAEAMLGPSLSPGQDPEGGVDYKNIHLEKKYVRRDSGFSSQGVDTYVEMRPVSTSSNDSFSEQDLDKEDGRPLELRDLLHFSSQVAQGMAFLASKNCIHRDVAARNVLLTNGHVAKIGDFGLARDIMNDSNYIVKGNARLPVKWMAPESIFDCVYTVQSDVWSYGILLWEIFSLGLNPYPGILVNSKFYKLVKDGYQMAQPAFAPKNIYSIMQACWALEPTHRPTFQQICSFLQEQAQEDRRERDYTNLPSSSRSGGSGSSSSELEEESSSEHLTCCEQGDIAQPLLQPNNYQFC
Sequence of Receptor-type tyrosine-protein kinase FLT3 (Homo sapiens) (P36888 whole entry): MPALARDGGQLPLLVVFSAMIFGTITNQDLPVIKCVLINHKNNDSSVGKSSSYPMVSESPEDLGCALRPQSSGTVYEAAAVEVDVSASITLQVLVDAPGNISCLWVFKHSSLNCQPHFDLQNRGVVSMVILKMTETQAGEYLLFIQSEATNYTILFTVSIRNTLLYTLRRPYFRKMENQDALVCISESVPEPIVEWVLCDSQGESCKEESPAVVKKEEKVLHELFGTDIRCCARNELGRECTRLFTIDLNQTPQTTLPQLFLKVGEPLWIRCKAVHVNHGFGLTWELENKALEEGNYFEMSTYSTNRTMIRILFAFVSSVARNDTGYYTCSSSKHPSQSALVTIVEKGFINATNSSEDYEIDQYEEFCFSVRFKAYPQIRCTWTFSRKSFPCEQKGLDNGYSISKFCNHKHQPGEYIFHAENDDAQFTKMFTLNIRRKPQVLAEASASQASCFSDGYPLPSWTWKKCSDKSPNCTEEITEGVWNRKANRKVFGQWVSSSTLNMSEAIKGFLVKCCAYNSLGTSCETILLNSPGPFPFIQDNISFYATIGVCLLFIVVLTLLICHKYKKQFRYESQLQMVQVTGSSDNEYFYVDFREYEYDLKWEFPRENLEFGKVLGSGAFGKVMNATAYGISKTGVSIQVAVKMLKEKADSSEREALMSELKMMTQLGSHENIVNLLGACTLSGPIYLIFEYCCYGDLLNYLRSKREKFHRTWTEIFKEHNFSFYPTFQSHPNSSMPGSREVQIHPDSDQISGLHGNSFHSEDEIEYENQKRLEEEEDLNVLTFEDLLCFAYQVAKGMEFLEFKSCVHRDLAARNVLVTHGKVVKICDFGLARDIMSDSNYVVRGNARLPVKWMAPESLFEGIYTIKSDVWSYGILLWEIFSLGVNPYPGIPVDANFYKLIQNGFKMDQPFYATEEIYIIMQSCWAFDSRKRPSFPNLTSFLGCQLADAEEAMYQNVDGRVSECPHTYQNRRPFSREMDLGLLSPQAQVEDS
Sequence of Serine/threonine-protein kinase 3 (Homo sapiens) (Q13188 whole entry): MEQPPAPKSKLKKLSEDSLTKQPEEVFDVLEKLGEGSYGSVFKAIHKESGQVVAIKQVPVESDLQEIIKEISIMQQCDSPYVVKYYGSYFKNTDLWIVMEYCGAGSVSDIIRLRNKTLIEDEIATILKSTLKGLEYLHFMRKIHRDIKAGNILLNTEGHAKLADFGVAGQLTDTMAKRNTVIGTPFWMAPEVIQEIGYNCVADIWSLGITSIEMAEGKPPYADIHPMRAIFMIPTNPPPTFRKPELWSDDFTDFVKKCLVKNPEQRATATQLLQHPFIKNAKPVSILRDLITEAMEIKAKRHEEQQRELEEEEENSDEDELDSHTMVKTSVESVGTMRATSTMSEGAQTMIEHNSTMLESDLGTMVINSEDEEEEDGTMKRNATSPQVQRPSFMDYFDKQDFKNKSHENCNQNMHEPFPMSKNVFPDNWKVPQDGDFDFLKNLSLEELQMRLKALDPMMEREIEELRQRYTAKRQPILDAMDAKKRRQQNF
Sequence of Mitogen-activated protein kinase 14 (Q16539 whole entry): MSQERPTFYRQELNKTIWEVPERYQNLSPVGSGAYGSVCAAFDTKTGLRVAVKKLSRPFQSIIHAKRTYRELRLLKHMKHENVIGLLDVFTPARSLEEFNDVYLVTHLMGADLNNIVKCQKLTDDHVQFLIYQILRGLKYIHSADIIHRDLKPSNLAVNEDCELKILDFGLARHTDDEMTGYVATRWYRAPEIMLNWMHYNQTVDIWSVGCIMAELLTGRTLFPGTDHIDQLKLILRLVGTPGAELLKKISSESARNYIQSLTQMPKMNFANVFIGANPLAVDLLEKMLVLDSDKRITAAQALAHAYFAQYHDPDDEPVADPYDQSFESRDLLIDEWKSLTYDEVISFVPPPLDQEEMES

IC50 [1]: 0.011 µM
inhibition [2]: 16%
inhibition [3]: 5%
inhibition [4]: 96%
inhibition [5]: 13%
inhibition [6]: 3%
inhibition [7]: -1%
IC50 [8]: > 50 µM
inhibition [9]: 14%
inhibition [10]: 4%
inhibition [11]: 3%
Papp A→B (MDR1 [12]): 27 ×10⁻⁶ cm/s
remaining at 2 h, 5 µM [13]: 50%
inhibition [14]: 1%
inhibition [15]: 3%
inhibition [16]: 11%
inhibition [17]: 1%
inhibition [18]: 25%
inhibition [19]: -2%
remaining at 2 h, 5 µM [20]: 29%
inhibition [21]: 7%
IC50 [22]: > 50 µM
efflux ratio (MDR1 [23]): 1.6
IC50 [24]: 0.014 µM
inhibition [25]: -1%
inhibition [26]: 19%
inhibition [27]: 2%
inhibition [28]: 2%
inhibition [29]: 29%
inhibition [30]: > 50%
inhibition [31]: 3%
inhibition [32]: 12%
inhibition [33]: 13%
inhibition [34]: 19%
inhibition [35]: 6%
inhibition [36]: 9%
inhibition [37]: 31%
IC50 [38]: 0.043 µM
inhibition [39]: 19%
inhibition [40]: -5%
inhibition [41]: 5%
inhibition [42]: 19%
inhibition [43]: 9%
inhibition [44]: 15%
inhibition [45]: 1%
inhibition [46]: 5%
inhibition [47]: 29%
SMILES: O=C(Cc1cccc2cnccc12)Nc1scc(Cl)c1-c1ncn[nH]1
inhibition in vivo at 300 mg/kg (Mus musculus): 51%
